From patent publication US10124065B2, “Lipids and lipid compositions for the delivery of active agents” (Novartis AG, priority 2013, dated 2018)
Where two headings read alike, the source gives them in different places.

How the values were obtained:
[1] = pKa measurement of cationic lipid (TNS fluorescence); format: physicochemical; settings: pKa of the cationic lipid of formula (I), Table 4
Experimental: Unless indicated otherwise, all pKa's referred to herein were measured at standard temperature and pressure. Also, unless otherwise indicated, all references to pKa are references to pKa measured using the following technique. 2 mM solution of lipid in ethanol was prepared by weighing the lipid and then dissolving it in ethanol. 0.3 mM solution of fluorescent probe TNS in ethanol:methanol 9:1 was prepared by first making 3 mM solution of TNS in methanol and then diluting to 0.3 mM with ethanol. An aqueous buffer containing 200 mM sodium phosphate dibasic and 100 mM citric acid was prepared. […] Using the Hamilton Microlab Star high throughput liquid handler and Hamilton run control software Software, 7.5 uL of probe/lipid mix were added to 242.5 uL of buffer in a 1 mL 96 well plate (model NUNC 260252, […] Nunc International). This was done with all twelve buffers. After mixing in 1 mL 96 well plate, 100 uL of each probe/lipid/buffer mixture was transferred to a 250 uL black with clear bottom 96 well plate (model COSTAR 3904, Corning). The fluorescence measurements are carried out on the SpectraMax M5 spectrophotometer using software SoftMax pro 5.2 and following parameters: After the measurement, the background fluorescence value of an empty well on the 96 well plate was subtracted from each probe/lipid/buffer mixture. The fluorescence intensity values were then normalized to the value at lowest pH. The normalized fluorescence intensity vs. pH chart was then plotted in the Microsoft Excel software. The twelve points were connected with a smooth line. The point on the line at which the normalized fluorescence intensity was equal to 0.5 was found. […] The pKa determined using this method is precise to about 0.1 pKa units.

[2] = Particle size of lipid nanoparticle (dynamic light scattering, Malvern Zetasizer); format: physicochemical
Description: The lipid nanoparticles have a size of about 1 to about 2,500 nm, about 1 to about 1,500 nm, about 1 to about 1,000 nm, in a sub-embodiment about 50 to about 600 nm, in a sub-embodiment about 50 to about 400 nm, in a sub-embodiment about 50 to about 250 nm, and in a sub-embodiment about 50 to about 150 nm. Unless indicated otherwise, all sizes referred to herein are the average sizes (diameters) of the fully formed nanoparticle, as measured by dynamic light scattering on a Malvern Zetasizer. The nanoparticle sample is diluted in phosphate buffered saline (PBS) so that the count rate is approximately 200-400 kcts. The data is presented as a weighted average of the intensity measure. Unless indicated otherwise, all particle size measurements referred to in Tables 4 and 5 are the Z-average particle size of the fully formed nanoparticle, as measured by dynamic light scattering on a Malvern Zetasizer. The nanoparticle sample was diluted in phosphate buffered saline (PBS) so that the count rate is approximately 200-400 kcts.

[3] = test system: plasma Factor VII enzyme activity; assay: Mouse Factor VII dosing / Factor VII Activity Assay; format: in vivo; settings: percent knock down of plasma Factor VII activity, CD-1 mice, 48 h; for KD FVII 0.03 mg/kg: single IV dose 0.03 mg/kg; for KD FVII 0.3 mg/kg: single IV dose 0.3 mg/kg
Summary of the method: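 Female CD-1 mice (~25 g) received a single IV tail-vein dose of lipid-nanoparticle-formulated Factor VII siRNA (0.3 or 0.03 mg/kg). Plasma taken ~48 h later; FVII activity measured chromogenically against vehicle-control plasma standard curve, reported as % knockdown.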

[4] = Polydispersity index (PDI) of lipid nanoparticle (dynamic light scattering); format: physicochemical
Experimental: Unless indicated otherwise, all PDIs referred to herein are the PDI of the fully formed nanoparticle, as measured by dynamic light scattering on a Malvern Zetasizer. The nanoparticle sample was diluted in phosphate buffered saline (PBS) so that the count rate was approximately 200-400 kcts. The data is presented in Tables 4 and 5 as a weighted average of the intensity measure.

[5] = test system: respiratory syncytial virus F protein; assay: Immunization studies, anti-RSV-F titers; format: in vivo; settings: anti-RSV-F titer, BALB/c, course A = days 0 & 21, liposomes with 0.1 μg vA317 replicon (naked: 1 μg); for 2wp1 pool 1 / 2wp1 pool 2: 2 weeks after first dose; for 2wp2 pool 1 / 2wp2 pool 2: 2 weeks after second dose
Experimental: BALB/c were immunized with liposomes comprising DSPC, cholesterol, and various lipids of the invention (or, for comparison, the cationic lipid 1,2-dilinoleyloxy-N,N-dimethyl-3-aminopropane or ‘DLinDMA’). The liposomes encapsulated 0.1 μg of “vA317” self-replicating RNA replicon which encodes respiratory syncytial virus F protein (see WO2012/031043). […] Doses were given either on days 0 & 21 or days 0 & 42. Immune responses were assessed 2 weeks after each dose (2wp1, 2wp2), and in some cases also at 4 weeks after the second dose (4wp2).

[6] = test system: human leptin; assay: Mouse intravenous tail vein injection of modified synthetic leptin mRNA, human leptin ELISA; format: in vivo, C57BL/6 mouse; settings: human leptin in mouse plasma, 10 μg leptin mRNA, 24 h
Experimental: Before the tail vein injection, mouse body weights were recorded and diet weighted, with mice grouped according to their body weights. Mice were prepared by warming them under a heating lamp for ˜2 minutes, with the mice about 12 inches from heat lamp.
For the tail vein injection procedure, the mice were placed in a restrainer and their tails cleaned with 70% alcohol. A 27 gauge needle (Becton Dickinson, Catalogue #305109) connected with a 1 ml syringe (Becton Dickinson, Catalogue #309659) was inserted into the tail vein, with bevel facing up, and the syringe plunger was pulled backwards to ensure blood is drawn into the syringe. The desired volume of modified synthetic leptin mRNA was injected by hand with moderate pressure and speed. The needle was then withdrawn and bleeding stopped by adding pressure to injection site with gauze.
Single housed, 8-9 week old, male C57BL/6 mice were used for the in vivo study. FPLC purified modified synthetic leptin mRNA (SEQ ID NO: 5) in which the uridines were substituted with pseudouridine was packaged in a cationic lipid (N:P molar ratio=8:1) and then were diluted in injectable saline at a dose of 10 μg per average group body weight.
On day 0, animals were weighed and sorted according to average body weight. Mice were dosed, and food intake (FI) was recorded, on each of days 1-7 and days 9, 11, and 16.
Human leptin in mouse plasma was measured by ELISA. Antibodies purchased from the R&D Systems duoset (Cat# DY398E, part#840279 for capture antibody and part#840280 for detection antibody) were reconstituted using PBS and titered, again using PBS. The capture antibody was coated at 4 ug/ml in 30 ul/well on a white Nunc® Maxisorp 384 well plate (Cat#460372). After an overnight incubation at room temperature the capture antibody was aspirated and the plate blocked for 2 hours at room temperature with 90 ul/well of KPL milk blocker (Cat#50-82-00). Once the incubation was completed the plate was aspirated and recombinant standards and samples were added to the plate at 30 ul/well for 2 hours at 37° C. while shaking at 600 rpm. Sample/standard dilutions were made using casein sample diluent. Washing/aspiration 3 times with 100 ul/well followed, using Teknova plate wash solution (Cat# P1192). Next, detection antibody was diluted using casein detection antibody diluent to 12.5 ng/ml and added at 30 ul/well for 2 hours room temperature. After this incubation, the plate was washed again and a solution of poly-streptavidin-HRP (Cat#21140) at a 1:1250 dilution in HRP dilution buffer was added to each well (30 ul/well) and incubated for 30 minutes room temperature. A final wash/aspiration removed the HRP solution and a chemiluminescent substrate was added at 30 ul/well (Cat#1859678 & 1859679). The plate was quickly read using a SpectramaxM5 plate reader with a 50 ms integration time. The dynamic range of the ELISA is from 100-2,000 pg/ml (6.25-125 pM) of human leptin.

[7] = FVII siRNA LNP, Chol/DSPC/PEG-DMG, molar ratio 45/44/9/2, Z-average
[8] = LNP Chol/DSPC/PEG-DMG 45/44/9/2
[9] = FVII siRNA LNP, Chol/DSPC/PEG-DMG, molar ratio 45/44/9/2
[10] = FVII siRNA LNP, Chol/DSPC/S010, molar ratio 45/44/9/2, Z-average
[11] = PLK1-424 siRNA LNP, Chol/DSPC/S011 45/44/9/2
[12] = FVII siRNA LNP, Chol/DSPC/S010, molar ratio 45/44/9/2

SMILES: CCCCCCCCOC(CCCOc1cc(CN(C)C)cc(OCCCC(OCCCCCCCC)OCCCCCCCC)c1)OCCCCCCCC [Ex. 126, 1-(3,5-bis(4,4-bis(octyloxy)butoxy)phenyl)-N,N-dimethylmethanamine]
- pKa ([1]; probe TNS, read-out: pKa): 5.54
- Size (nm) [2, 7]: 95.2 nm
- KD FVII 0.03 mg/kg [3, 8]: 31.7%
- PDI [4, 9]: 0.075

SMILES: CCCCC/C=C\C/C=C\CCCCCCCCOc1cc(CN(C)C)cc(OCCCCCCCC/C=C\C/C=C\CCCCC)c1 [Example 2, 1-(3,5-bis((9Z,12Z)-octadeca-9,12-dien-1-yloxy)phenyl)-N,N-dimethylmethanamine]
- pKa ([1]; listed as Ex. 2): 5.46
- Size (nm) [2, 7]: 97.4 nm
- Size (nm) [2, 10]: 92.85 nm
- Size (nm) [2, 11]: 88.19 nm
- 2wp1 pool 1 [5]: 217
- 2wp1 pool 2 [5]: 259
- 2wp2 pool 1 [5]: 12785
- 2wp2 pool 2 [5]: 8232
- KD FVII 0.03 mg/kg ([3]; LNP Chol/DSPC/S010 45/44/9/2): 55%
- KD FVII 0.3 mg/kg [3, 8]: 95.5%
- PDI [4, 9]: 0.04
- PDI [4, 12]: 0.067
- PDI [4, 11]: 0.1

SMILES: CCCCC/C=C\C/C=C\CCCCCCCC(=O)Oc1cc(COC(=O)CCN(C)C)cc(OC(=O)CCCCCCC/C=C\C/C=C\CCCCC)c1 [Example 26, (9Z,9′Z,12Z,12′Z)-5-(((3-(dimethylamino)propanoyl)oxy)methyl)-1,3-phenylene bis(octadeca-9,12-dienoate)]
- pKa ([1]; probe TNS, read-out: pKa): 6.45
- Size (nm) [2, 7]: 104.3 nm
- Size (nm) [2, 10]: 121.6 nm
- 2wp1 pool 1 [5]: 4
- 2wp1 pool 2 [5]: 4
- 2wp2 pool 1 [5]: 10
- 2wp2 pool 2 [5]: 10
- 4wp2 pool 1 ([5]; 4 weeks after second dose): 10
- 4wp2 pool 2 ([5]; 4 weeks after second dose): 10
- KD FVII 0.3 mg/kg [3, 8]: 58.1%
- PDI [4, 9]: 0.04
- PDI [4, 12]: 0.046

SMILES: CCCCCCCCCCCC(=O)OCCCCCCCCOc1cc(CN(C)C)cc(OCCCCCCCCOC(=O)CCCCCCCCCCC)c1 [Example 53, ((5-((dimethylamino)methyl)-1,3-phenylene)bis(oxy))bis(octane-8,1-diyl)didodecanoate]
- pKa ([1]; listed as Ex. 53): 5.84
- KD FVII 0.3 mg/kg [3, 8]: 96.6%

SMILES: CCCCCCCCC(CCCCCCCC)CC(=O)OCCCOc1cc(CN(C)C)cc(OCCCOC(=O)CC(CCCCCCCC)CCCCCCCC)c1 [Example 56, ((5-((dimethylamino)methyl)-1,3-phenylene)bis(oxy))bis(propane-3,1-diyl)bis(3-octylundecanoate)]
- pKa ([1]; listed as Ex. 56): 5.71
- KD FVII 0.3 mg/kg [3, 8]: 71.0%

SMILES: CCCCC/C=C\C/C=C\CCCCCCCC(=O)OCCOCCOc1cc(CN(CC)CC)cc(OCCOCCOC(=O)CCCCCCC/C=C\C/C=C\CCCCC)c1 [Example 58, (9Z,9′Z,12Z,12′Z)-((((5-((diethylamino)methyl)-1,3-phenylene)bis(oxy))bis(ethane-2,1-diyl))bis(oxy))bis(ethane-2,1-diyl)bis(octadeca-9,12-dienoate)]
- pKa ([1]; listed as Ex. 58): 6.02
- KD FVII 0.03 mg/kg ([3]; LNP Chol/DSPC/S010 45/44/9/2): 15.25%
- KD FVII 0.3 mg/kg [3, 8]: 78.1%

SMILES: CCCCCCCC(=O)OCCCCCC(=O)OCc1cc(COC(=O)CCCCCOC(=O)CCCCCCC)cc(CN(C)C)c1 [Example 85, (((5-((dimethylamino)methyl)-1,3-phenylene)bis(methylene))bis(oxy))bis(6-oxohexane-6,1-diyl)dioctanoate]
- Leptin expression IV-C57BI/6, 24 h [6]: 1.78 ng/mL

SMILES: CCCCCCCC(=O)OCCCCCCCCCC(=O)OCc1cc(COC(=O)CCCCCCCCCOC(=O)CCCCCCC)cc(CN(C)C)c1 [Example 86, (5-((dimethylamino)methyl)-1,3-phenylene)bis(methylene)bis(10-(octanoyloxy)decanoate)]
- pKa ([1]; listed as Ex. 86): 5.81
- KD FVII 0.03 mg/kg ([3]; LNP Chol/DSPC/S010 45/44/9/2): 0%
- KD FVII 0.3 mg/kg [3, 8]: 55.3%

SMILES: CCCCCCCC(=O)OC[C@@H](CCOc1cc(CN(C)C)cc(OCC[C@@H](COC(=O)CCCCCCC)OC(=O)CCCCCCC)c1)OC(=O)CCCCCCC [Example 92, (R)-4-(3-((S)-3,4-bis(octanoyloxy)butoxy)-5-((dimethylamino)methyl)phenoxy)butane-1,2-diyldioctanoate]
- Leptin expression IV-C57BI/6, 24 h [6]: 1.34 ng/mL
- KD FVII 0.03 mg/kg ([3]; LNP Chol/DSPC/S010 45/44/9/2): 89.4%
